Three compounds from ChEMBL document CHEMBL1777708, “An expeditious access to 5-pyrimidinol derivatives from cyclic methylglyoxal diadducts, formation of argpyrimidines under physiological conditions and discovery of new CFTR inhibitors” (Eur J Med Chem, 2011) can be followed below.

A short description of series [1]: Dissociation constant, pKa of the compound by spectrophotometry. The series is classed as physicochemical.
Series [2] deals with Cystic fibrosis transmembrane conductance regulator (Homo sapiens) (UniProt P13569). The series is described as follows: Inhibition of wild type CFTR expressed in CHO cells by [125I]iodide efflux assay. The series is classed as cell-based.

Active and inactive are the calls of the source. The calls are words filed in the database; no cut-off is given here.

Chain of Cystic fibrosis transmembrane conductance regulator (Homo sapiens) (P13569 whole entry, looked up): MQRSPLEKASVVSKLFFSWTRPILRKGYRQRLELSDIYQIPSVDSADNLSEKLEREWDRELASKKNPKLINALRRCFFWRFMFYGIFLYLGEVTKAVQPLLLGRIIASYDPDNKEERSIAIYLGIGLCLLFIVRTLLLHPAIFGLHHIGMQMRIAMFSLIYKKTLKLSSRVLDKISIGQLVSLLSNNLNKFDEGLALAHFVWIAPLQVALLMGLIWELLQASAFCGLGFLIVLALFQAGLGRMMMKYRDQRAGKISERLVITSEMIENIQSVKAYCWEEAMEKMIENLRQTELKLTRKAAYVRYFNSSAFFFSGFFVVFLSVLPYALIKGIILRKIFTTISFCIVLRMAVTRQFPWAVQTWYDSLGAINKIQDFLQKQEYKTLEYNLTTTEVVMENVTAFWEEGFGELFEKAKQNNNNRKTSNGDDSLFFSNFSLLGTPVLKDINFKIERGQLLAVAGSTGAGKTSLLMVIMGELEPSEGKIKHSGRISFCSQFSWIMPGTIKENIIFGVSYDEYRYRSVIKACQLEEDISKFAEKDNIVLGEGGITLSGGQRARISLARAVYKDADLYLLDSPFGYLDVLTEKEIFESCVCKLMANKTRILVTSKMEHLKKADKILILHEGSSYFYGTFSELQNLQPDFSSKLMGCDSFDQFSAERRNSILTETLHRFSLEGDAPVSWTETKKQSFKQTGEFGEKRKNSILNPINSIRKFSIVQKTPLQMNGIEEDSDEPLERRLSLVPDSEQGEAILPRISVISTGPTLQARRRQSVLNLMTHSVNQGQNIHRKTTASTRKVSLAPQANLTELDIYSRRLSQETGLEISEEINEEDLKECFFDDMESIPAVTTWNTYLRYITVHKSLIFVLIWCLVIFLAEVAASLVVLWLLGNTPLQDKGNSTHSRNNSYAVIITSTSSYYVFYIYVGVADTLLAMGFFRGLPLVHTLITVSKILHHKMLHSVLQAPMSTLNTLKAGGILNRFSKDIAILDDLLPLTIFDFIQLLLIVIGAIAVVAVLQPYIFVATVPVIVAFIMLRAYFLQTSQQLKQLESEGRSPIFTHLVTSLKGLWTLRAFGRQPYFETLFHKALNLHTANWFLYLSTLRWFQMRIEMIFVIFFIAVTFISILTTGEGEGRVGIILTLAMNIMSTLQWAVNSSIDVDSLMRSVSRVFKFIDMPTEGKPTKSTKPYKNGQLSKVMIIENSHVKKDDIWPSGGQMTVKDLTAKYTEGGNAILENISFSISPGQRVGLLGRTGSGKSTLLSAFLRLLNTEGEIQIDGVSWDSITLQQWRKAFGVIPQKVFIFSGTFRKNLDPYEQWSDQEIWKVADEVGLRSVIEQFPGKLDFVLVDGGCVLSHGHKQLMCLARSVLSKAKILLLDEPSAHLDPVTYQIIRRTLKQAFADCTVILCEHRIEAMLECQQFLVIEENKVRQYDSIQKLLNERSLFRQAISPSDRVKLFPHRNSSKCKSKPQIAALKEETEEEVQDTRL

As usually defined, the pKa is the negative logarithm of the acid dissociation constant. In the case of `Cc1nc2c3ccccc3cc[n+]2c(C)c1[O-]`, in series [1], the pKa came out at 4.

`C[C@]1(C(=O)O)N=C2C=CC=CN2[C@](C)(O)[C@@H]1O`: the inhibition result in series [2] was “inactive”.

In the case of `C[C@]1(C(=O)O)N=C2C=CC=CN2[C@](C)(O)[C@H]1O`, in series [2], the inhibition entry was “inactive”.
